Test results: patent US20140199372A1, “MICROBIAL GROWTH FACTORS” (NORTHEASTERN UNIVERSITY, priority 2011, published 2014)
Read-outs that look alike come from different tables or passages of the source.

How the values were obtained:
[1] = tested on: KLE1280; experiment: Induction of growth of KLE1280 by quinones on plates; format: cell-based, Porphyromonas sp. KLE1280
Method: Serial dilutions of dental plaque from a healthy individual were spread onto Fastidious Anaerobe Agar plates containing 5% sheep blood and 5% pooled human saliva (FBS) and incubated anaerobically. Small colonies growing next to large ones on dense plates were picked and spread onto fresh FBS plates. A helper mix of colonies growing around individual small colonies was spotted on these plates. Isolates were identified that depended for growth on this mix. If E. coli produces a growth factor, its identification can be efficiently performed, since a complete knockout library of this species is available. Testing knockout mutants identifies those that lost their ability to help growth of the uncultured organism, which then leads to the identification of the biosynthetic pathway of the growth factor. […] This organism is closely related to Porphyromonas sp. oral taxon 279 (99% similarity by 16S rRNA gene sequencing) (96% similarity to closest type strain Porphyromonas catoniae). In particular, KLE1280 is closely related to Porphyromonas catoniae (96% similarity by 16S rRNA gene sequencing). […] This deletion mutant has the menaquinone biosynthesis genes deleted. […] 5 genes in the menaquinone biosynthesis pathway are knocked out in this mutant (http://www.shigen.nig.ac.jp/ecoli/pec/quickSearch.List.DeletionsDetailAction.do?fromListFlag=true&classId=4&deId=226). E. coli strains with single gene deletions in the menaquinone biosynthesis pathway were tested for induction of growth.
Different quinones (Q), commercially available and/or isolated from E. coli and Micrococcus luteus were tested for induction of growth of KLE1280.
Different concentrations of MK4 were spotted on media with and without blood (5%) or hemin (10 μg/ml) or hemoglobin (100 μg/ml).

[2] = tested on: Flaviramulus sp. KLE1215; experiment: Growth of KLE1215 in liquid culture with quinones delivered in liposomes; format: cell-based; details: R2A broth, 50% artificial sea salts, 0.001% Fe(II), MK4 250 μM to 1.5 mM, MK6 and MK6 chromenols purified from KLE1215
Method: The growth of Flaviramulus sp. KLE1215 is enhanced by the addition of purified quinone-like compounds when they are delivered in liposomes. […] Growth of KLE1215 induced with varying concentrations of MK4 delivered in liposomes. 5 ml liquid cultures of KLE1215 were set up with no supplement (squares), empty liposomes as liposome control (triangles), liposomes loaded with 250 μM MK4 (cross), liposomes loaded with 500 μM MK4 liposomes (asterisk), liposomes loaded with 750 μM MK4 (circle), liposomes loaded with 1 mM MK4 (vertical line), liposomes loaded with 1.25 mM MK4 (dark line), and liposomes loaded with 1.5 mM MK4 (light line) is shown in FIG. 8. […] broth (without yeast extract) with 50% artificial sea salts supplemented with 0.001% Fe(II) was used for these cultures. Values represent the average of two independent cultures of KLE1215 in […] broth with 50% artificial sea salts supplemented with 0.001% Fe(II). […] 5 ml liquid cultures of KLE1215 were prepared with nothing added (squares), empty liposome as liposome control (triangles), liposomes loaded with MK6 from KLE1215 (cross), and liposomes loaded with MK6 chromenols from KLE1215 (asterisk). R2A broth (without yeast extract) with 50% artificial sea salts supplemented with 0.001% Fe(II) was used for these cultures. Values represent the average of independent cultures of KLE1215 in […] broth with 50% artificial sea salts supplemented with 0.001% Fe(II).

[3] = tested on: Bizinio sp. KLE1402; experiment: Growth of KLE1402 in liquid culture with quinone-loaded liposomes; format: cell-based; details: delivered by liposomes loaded with 500 μM MK4; R2A broth, 50% sea salts, 0.001% Fe(II)
Source text: Two isolates were streaked for isolation; the culturable helper on the left induces the growth of unculturable KLE1402 on the right only when it is close proximity. The closest relative to the dependent KLE1402 is Bizionia echini (96.6% Identity according to 16S rRNA gene sequence), from the family Flavobacteriaceae. The closest relative to the helper KLE1403 is Ruegeria lacuscaerulensis (98.4% identity by 16S rRNA gene sequence), from the class Alphaproteobacteria. E. coli induces the growth of KLE1402 (FIG. 11). KLE1402 spread evenly on R2A with 50% artificial sea salts and 0.001% Fe(II) with a dense spot of E. coli. […] KLE1402 spread evenly on R2A with 50% artificial sea salts and 0.001% Fe(II) with a dense spot of E. coli ΔubiG. KLE1402 grows with the addition of quinone-loaded liposomes (FIG. 13). Cells of KLE1402 were used to inoculate culture tubes with 5 ml R2A broth with 50% sea salts and 0.001% Fe(II). Tube A: no supplement, Tube B: Empty liposomes added, Tube C: Liposomes loaded with 500 μM MK4 added. KLE1402 grows with the addition of quinone-loaded liposomes (FIG. 14). 5 ml liquid cultures of KLE1402 were set up with no supplement (squares), empty liposomes as liposome control (triangles), liposomes loaded with 500 μM MK4 (cross). R2A broth with 50% artificial sea salts supplemented with 0.001% Fe(II) was used as media for these cultures. […]

[4] = quinone isolated from M. luteus

Compound: O=C(O)c1cc(O)c2ccccc2c1O [DHNA, 1,4-dihydroxy-2-naphthoate]
- induction of growth of KLE1280 [1]: showed induction of growth

Compound: CC(C)=CCC/C(C)=C/CC/C(C)=C/CC/C(C)=C/CC1=C(C)C(=O)c2ccccc2C1=O [Menaquinone4]
- induction of growth of KLE1280 [1]: induced growth
- Results: induction of growth of KLE1280 ([1]; quinone commercially available): Induction
- Results: induction of growth of KLE1280 [1, 4]: Induction
- induction of growth of KLE1280 ([1]; spotted on media with blood (5%) or hemin (10 μg/ml) or hemoglobin (100 μg/ml)): induced growth only in the presence of either of these 3 in the medium
- induction of growth of KLE1280 ([1]; substance alone): did not induce growth
- growth of KLE1215 [2]: growth-enhancing effects
- growth of KLE1402 [3]: can induce the growth

Compound: CC(C)=CCC/C(C)=C/CC/C(C)=C/CC/C(C)=C/CC/C(C)=C/CC1=C(C)C(=O)c2ccccc2C1=O [Menaquinone5]
- Results: induction of growth of KLE1280 [1, 4]: Induction

Compound: CC(C)=CCC/C(C)=C/CC/C(C)=C/CC/C(C)=C/CC/C(C)=C/CC/C(C)=C/CC1=C(C)C(=O)c2ccccc2C1=O [Menaquinone6]
- Results: induction of growth of KLE1280 [1, 4]: Induction
- growth of KLE1215 [2]: growth-enhancing effects

Compound: CC(C)=CCC/C(C)=C/CC/C(C)=C/CC/C(C)=C/CC/C(C)=C/CC/C(C)=C/CC/C(C)=C/CC1=C(C)C(=O)c2ccccc2C1=O [Menaquinone7]
- Results: induction of growth of KLE1280 [1, 4]: Very less induction (late)

Compound: CC(C)=CCC/C(C)=C/CC/C(C)=C/CC/C(C)=C/CC/C(C)=C/CC/C(C)=C/CC/C(C)=C/CC/C(C)=C/CC1=C(C)C(=O)c2ccccc2C1=O [Menaquinone8]
- Results: induction of growth of KLE1280 ([1]; quinone isolated from E. coli): No induction
- Results: induction of growth of KLE1280 [1, 4]: Very less induction (late)

Compound: COC1=C(OC)C(=O)C(CC=C(C)C)=C(C)C1=O [Q1]
- Results: induction of growth of KLE1280 ([1]; quinone commercially available): No induction

Compound: COC1=C(OC)C(=O)C(C/C=C(\C)CCC=C(C)C)=C(C)C1=O [Q2]
- Results: induction of growth of KLE1280 ([1]; quinone commercially available): No induction

Compound: COC1C(=O)C(C)=C(C/C=C(\C)CC/C=C(\C)CC/C=C(\C)CCC=C(C)C)C(=O)C1OC (stereo not drawn) [Q4]
- Results: induction of growth of KLE1280 ([1]; quinone commercially available): No induction

Compound: COC1=C(OC)C(=O)C(C/C=C(\C)CC/C=C(\C)CC/C=C(\C)CC/C=C(\C)CC/C=C(\C)CC/C=C(\C)CC/C=C(\C)CC/C=C(\C)CCC=C(C)C)=C(C)C1=O [Q9]
- Results: induction of growth of KLE1280 ([1]; quinone commercially available): No induction

Compound: COC1=C(OC)C(=O)C(C/C=C(\C)CC/C=C(\C)CC/C=C(\C)CC/C=C(\C)CC/C=C(\C)CC/C=C(\C)CC/C=C(\C)CC/C=C(\C)CC/C=C(\C)CCC=C(C)C)=C(C)C1=O [Q10]
- Results: induction of growth of KLE1280 ([1]; quinone commercially available): No induction

Compound: COC1=C(OC)C(=O)C(C/C=C(\C)CC/C=C(\C)CC/C=C(\C)CC/C=C(\C)CC/C=C(\C)CC/C=C(\C)CCC=C(C)C)=C(C)C1=O [Ubiquinone7]
- Results: induction of growth of KLE1280 ([1]; quinone isolated from E. coli): No induction

Compound: COC1=C(OC)C(=O)C(C/C=C(\C)CC/C=C(\C)CC/C=C(\C)CC/C=C(\C)CC/C=C(\C)CC/C=C(\C)CC/C=C(\C)CCC=C(C)C)=C(C)C1=O [Ubiquinone8]
- Results: induction of growth of KLE1280 ([1]; quinone isolated from E. coli): No induction

Compound: hemin
- induction of growth of KLE1280 ([1]; substance alone): did not induce growth

Compound: hemoglobin
- induction of growth of KLE1280 ([1]; substance alone): did not induce growth

Compound: menachromenal 6 [MK6 chromenols]
- growth of KLE1215 [2]: growth-enhancing effects
